Results on 7 molecules are retold here after patent US10988523B2, “Modified lipidated Relaxin B chain peptides and their therapeutic use” (Sanofi, priority 2018, dated 2021).

SMILES strings stand for the structures. *1 amine or outer side, *2 acyl side, *3 side chain or, on linkers, in order; H or OH if unused. Where a SMILES comes first, the peptide text is derived from it. Side-chain parts run from the residue outwards. [ ]: non-standard residue; d: D form. The star is where a group is joined. X15 = CCCCCCCCCCCCCCCCCC(=O)N[C@@H](CCC(=O)N[C@@H](CCC(=O)N[C@@H](CCC(=O)NCCCOCCOCCOCCCNC(=O)COCC(=O)NCCCOCCOCCOCCCNC(=O)COCC(=O)NCCCOCCOCCOCCCNC(=O)COCC(=O)*)C(=O)O)C(=O)O)C(=O)O; X16 = CCCCCCCCCCCCCCCCCC(=O)N[C@@H](CCC(=O)N[C@@H](CCC(=O)N[C@@H](CCC(=O)NCCCOCCOCCOCCCNC(=O)COCC(=O)*)C(=O)O)C(=O)O)C(=O)O; PEG12 = NCCOCCOCCOCCOCCOCCOCCOCCOCCOCCOCCOCCOCCC(=O)O; γGlu = O=C(O)[C@H](CCC(=O)[*:2])N[*:1]; Stearoyl = CCCCCCCCCCCCCCCCCC(=O)*; Nle = CCCC[C@H](N)C(=O)O; AEEA = NCCOCCOCC(=O)O; Aib = CC(C)(N)C(=O)O

The experiment concerns the target T1, RXFP1 (Homo sapiens, UniProt Q9HBX9).
T1 construct: OVCAR5 cells expressing endogenous RXFP1; endogenous in cells; host or cells: OVCAR5 cells
T1 sequence (Q9HBX9 1-757): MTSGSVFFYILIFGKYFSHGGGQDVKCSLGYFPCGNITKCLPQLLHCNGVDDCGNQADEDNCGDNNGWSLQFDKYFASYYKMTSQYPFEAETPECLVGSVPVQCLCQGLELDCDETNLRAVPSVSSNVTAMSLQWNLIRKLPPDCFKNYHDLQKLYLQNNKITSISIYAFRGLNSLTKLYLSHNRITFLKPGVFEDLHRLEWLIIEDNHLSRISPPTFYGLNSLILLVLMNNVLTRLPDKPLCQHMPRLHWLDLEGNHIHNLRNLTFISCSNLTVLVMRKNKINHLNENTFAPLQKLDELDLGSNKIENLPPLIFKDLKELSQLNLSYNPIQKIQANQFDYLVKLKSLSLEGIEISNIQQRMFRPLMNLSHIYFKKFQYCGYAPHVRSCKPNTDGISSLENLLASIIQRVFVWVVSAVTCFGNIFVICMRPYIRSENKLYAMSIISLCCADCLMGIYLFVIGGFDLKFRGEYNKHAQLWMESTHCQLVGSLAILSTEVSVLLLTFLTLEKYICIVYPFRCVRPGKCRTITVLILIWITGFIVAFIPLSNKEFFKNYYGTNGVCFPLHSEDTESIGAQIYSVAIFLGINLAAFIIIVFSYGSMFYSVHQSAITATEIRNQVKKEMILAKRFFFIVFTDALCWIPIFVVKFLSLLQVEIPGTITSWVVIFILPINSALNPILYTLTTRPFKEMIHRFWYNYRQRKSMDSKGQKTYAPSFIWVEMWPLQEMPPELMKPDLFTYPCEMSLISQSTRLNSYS
Kind of experiment: OVCAR5 cAMP assay (HTRF), RXFP1 agonist activity. As to conditions: for EC50: OVCAR5 cells, cAMP HTRF, read-out: EC50 (nM), OVCAR 5 cells (cAMP); for Emax: OVCAR-5, maximal cAMP relative to H2-relaxin maximum (100%), read-out: EMax, OVCAR 5 cells (cAMP). The class given is cell-based. An outline of the steps:
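cAMP accumulation readout: after 1 mM IBMX for 40 min, endogenous-RXFP1 OVCAR5 cells got rising peptide concentrations without FCS, 30 min, 37° C, then lysis with HTRF cAMP reagents. Nonlinear regression gave EC50; Emax expressed relative to H2-relaxin maximum, same occasion.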

What is called EC50 is the concentration that produces a half-maximal response. One may read the Emax as the maximal effect, on the per cent scale that the assay sets. For `CCCCCCCCCCCCCCCCCC(=O)N[C@@H](CCC(=O)N[C@@H](CCC(=O)N[C@@H](CCC(=O)NCCOCCOCC(=O)NCCOCCOCC(=O)NCCOCCOCC(=O)NCCOCCOCC(=O)NCCCC[C@H](NC(=O)[C@H](CCCCNC(C)=O)NC(=O)[C@H](CCCCN)NC(=O)[C@H](CCCNC(=N)N)NC(=O)C(C)(C)NC(=O)[C@H](CO)NC(=O)[C@H](Cc1c[nH]c2ccccc12)NC(=O)[C@@H](NC(=O)[C@H](CO)NC(=O)[C@H](CCCC)NC(=O)CNC(=O)[C@H](CCC(=O)O)NC(=O)C(C)(C)NC(=O)C(C)(C)NC(=O)[C@@H](NC(=O)[C@H](CCCCNC(C)=O)NC(=O)[C@H](C)NC(=O)[C@H](CCCNC(=N)N)NC(=O)[C@@H](NC(=O)[C@H](CCCCN)NC(=O)[C@H](CCC(=O)O)NC(=O)[C@H](CCCNC(=N)N)NC(=O)CNC(=O)[C@H](CCC(=O)O)NC(=O)[C@H](CC(C)C)NC(C)=O)C(C)C)[C@@H](C)CC)[C@@H](C)O)C(N)=O)C(=O)O)C(=O)O)C(=O)O` [compound 90] (Ac-LEGREKVRAK(Ac)I[Aib][Aib]EG[Nle]STWS[Aib]RKK(Ac)K([AEEA-AEEA-AEEA-AEEA-γGlu-γGlu-γGlu-Stearoyl])-NH2), the EC50 is 0.07 nM and the maximum response (Emax) was found to be 89%.

Take `CCCCCCCCCCCCCCCCCC(=O)N[C@@H](CCC(=O)N[C@@H](CCC(=O)N[C@@H](CCC(=O)NCCOCCOCC(=O)NCCOCCOCC(=O)NCCOCCOCC(=O)NCCOCCOCC(=O)NCCCC[C@H](NC(=O)[C@H](CCCCN)NC(=O)[C@H](CCCCN)NC(=O)[C@H](CCCNC(=N)N)NC(=O)C(C)(C)NC(=O)[C@H](CO)NC(=O)[C@H](Cc1c[nH]c2ccccc12)NC(=O)[C@@H](NC(=O)[C@H](CO)NC(=O)[C@H](CCCC)NC(=O)CNC(=O)[C@H](CCC(=O)O)NC(=O)C(C)(C)NC(=O)C(C)(C)NC(=O)[C@@H](NC(=O)[C@H](CCC(N)=O)NC(=O)[C@H](C)NC(=O)[C@H](CCCNC(=N)N)NC(=O)[C@@H](NC(=O)[C@H](CCCCN)NC(=O)[C@H](CCC(=O)O)NC(=O)[C@H](CCCNC(=N)N)NC(=O)CNC(=O)[C@H](CCC(=O)O)NC(=O)[C@H](CC(C)C)NC(C)=O)C(C)C)[C@@H](C)CC)[C@@H](C)O)C(N)=O)C(=O)O)C(=O)O)C(=O)O` [compound 92] (Ac-LEGREKVRAQI[Aib][Aib]EG[Nle]STWS[Aib]RKKK([AEEA-AEEA-AEEA-AEEA-γGlu-γGlu-γGlu-Stearoyl])-NH2): the EC50 was found to be 0.26 nM and the Emax was 82%.

On to `CCCCCCCCCCCCCCCCCC(=O)N[C@@H](CCC(=O)N[C@@H](CCC(=O)N[C@@H](CCC(=O)NCCOCCOCC(=O)NCCOCCOCC(=O)NCCOCCOCC(=O)NCCOCCOCC(=O)NCCOCCOCC(=O)NCCCC[C@H](NC(=O)[C@H](CCCCN)NC(=O)[C@H](CCCCN)NC(=O)[C@H](CCCNC(=N)N)NC(=O)C(C)(C)NC(=O)[C@H](CO)NC(=O)[C@H](Cc1c[nH]c2ccccc12)NC(=O)[C@@H](NC(=O)[C@H](CO)NC(=O)[C@H](CCCC)NC(=O)CNC(=O)[C@H](CCC(=O)O)NC(=O)C(C)(C)NC(=O)C(C)(C)NC(=O)[C@@H](NC(=O)[C@H](CCC(N)=O)NC(=O)[C@H](C)NC(=O)[C@H](CCCNC(=N)N)NC(=O)[C@@H](NC(=O)[C@H](CCCCN)NC(=O)[C@H](CCC(=O)O)NC(=O)[C@H](CCCNC(=N)N)NC(=O)CNC(=O)[C@H](CCC(=O)O)NC(=O)[C@H](CC(C)C)NC(C)=O)C(C)C)[C@@H](C)CC)[C@@H](C)O)C(N)=O)C(=O)O)C(=O)O)C(=O)O` [compound 93] (Ac-LEGREKVRAQI[Aib][Aib]EG[Nle]STWS[Aib]RKKK([AEEA-AEEA-AEEA-AEEA-AEEA-γGlu-γGlu-γGlu-Stearoyl])-NH2), for which the EC50 was 0.14 nM and the Emax stood at 87%.

As to `CCCCCCCCCCCCCCCCCC(=O)N[C@@H](CCC(=O)N[C@@H](CCC(=O)N[C@@H](CCC(=O)NCCCOCCOCCOCCCNC(=O)COCC(=O)NCCCC[C@H](NC(=O)[C@H](CCCCNC(C)=O)NC(=O)[C@H](CCCCN)NC(=O)[C@H](CCCNC(=N)N)NC(=O)C(C)(C)NC(=O)[C@H](CO)NC(=O)[C@H](Cc1c[nH]c2ccccc12)NC(=O)[C@@H](NC(=O)[C@H](CO)NC(=O)[C@H](CCCC)NC(=O)CNC(=O)[C@H](CCC(=O)O)NC(=O)C(C)(C)NC(=O)C(C)(C)NC(=O)[C@@H](NC(=O)[C@H](CCCCNC(C)=O)NC(=O)[C@H](C)NC(=O)[C@H](CCCNC(=N)N)NC(=O)[C@@H](NC(=O)[C@H](CCCCN)NC(=O)[C@H](CCC(=O)O)NC(=O)[C@H](CCCNC(=N)N)NC(=O)CNC(=O)[C@H](CCC(=O)O)NC(=O)[C@H](CC(C)C)NC(C)=O)C(C)C)[C@@H](C)CC)[C@@H](C)O)C(N)=O)C(=O)O)C(=O)O)C(=O)O` [compound 94] (Ac-LEGREKVRAK(Ac)I[Aib][Aib]EG[Nle]STWS[Aib]RKK(Ac)K(X16)-NH2), the Emax was found to be 90%.

Take `CCCCCCCCCCCCCCCCCC(=O)N[C@@H](CCC(=O)N[C@@H](CCC(=O)N[C@@H](CCC(=O)NCCCOCCOCCOCCCNC(=O)COCC(=O)NCCCOCCOCCOCCCNC(=O)COCC(=O)NCCCOCCOCCOCCCNC(=O)COCC(=O)NCCCC[C@H](NC(=O)[C@H](CCCCNC(C)=O)NC(=O)[C@H](CCCCN)NC(=O)[C@H](CCCNC(=N)N)NC(=O)C(C)(C)NC(=O)[C@H](CO)NC(=O)[C@H](Cc1c[nH]c2ccccc12)NC(=O)[C@@H](NC(=O)[C@H](CO)NC(=O)[C@H](CCCC)NC(=O)CNC(=O)[C@H](CCC(=O)O)NC(=O)C(C)(C)NC(=O)C(C)(C)NC(=O)[C@@H](NC(=O)[C@H](CCCCNC(C)=O)NC(=O)[C@H](C)NC(=O)[C@H](CCCNC(=N)N)NC(=O)[C@@H](NC(=O)[C@H](CCCCN)NC(=O)[C@H](CCC(=O)O)NC(=O)[C@H](CCCNC(=N)N)NC(=O)CNC(=O)[C@H](CCC(=O)O)NC(=O)[C@H](CC(C)C)NC(C)=O)C(C)C)[C@@H](C)CC)[C@@H](C)O)C(N)=O)C(=O)O)C(=O)O)C(=O)O` [compound 96] (Ac-LEGREKVRAK(Ac)I[Aib][Aib]EG[Nle]STWS[Aib]RKK(Ac)K(X15)-NH2): the Emax was found to be 89%.

`CCCCCCCCCCCCCCCCCC(=O)N[C@@H](CCC(=O)N[C@@H](CCC(=O)N[C@@H](CCC(=O)NCCOCCOCCOCCOCCOCCOCCOCCOCCOCCOCCOCCOCCC(=O)NCCCC[C@H](NC(=O)[C@H](CCCCN)NC(=O)[C@H](CCCCN)NC(=O)[C@H](CCCNC(=N)N)NC(=O)C(C)(C)NC(=O)[C@H](CO)NC(=O)[C@H](Cc1c[nH]c2ccccc12)NC(=O)[C@@H](NC(=O)[C@H](CO)NC(=O)[C@H](CCCC)NC(=O)CNC(=O)[C@H](CCC(=O)O)NC(=O)C(C)(C)NC(=O)C(C)(C)NC(=O)[C@@H](NC(=O)[C@H](CCC(N)=O)NC(=O)[C@H](C)NC(=O)[C@H](CCCNC(=N)N)NC(=O)[C@@H](NC(=O)[C@H](CCCCN)NC(=O)[C@H](CCC(=O)O)NC(=O)[C@H](CCCNC(=N)N)NC(=O)CNC(=O)[C@H](CCC(=O)O)NC(=O)[C@H](CC(C)C)NC(C)=O)C(C)C)[C@@H](C)CC)[C@@H](C)O)C(N)=O)C(=O)O)C(=O)O)C(=O)O` [compound 97] (Ac-LEGREKVRAQI[Aib][Aib]EG[Nle]STWS[Aib]RKKK([PEG12-γGlu-γGlu-γGlu-Stearoyl])-NH2): the Emax was found to be 98%.

Consider `CCCCCCCCCCCCCCCCCC(=O)NCCOCCOCC(=O)N[C@@H](CCC(=O)N[C@@H](CCC(=O)N[C@@H](CCC(=O)NCCOCCOCC(=O)NCCOCCOCC(=O)NCCCC[C@H](NC(=O)[C@H](CCCCN)NC(=O)[C@H](CCCCN)NC(=O)[C@H](CCCNC(=N)N)NC(=O)C(C)(C)NC(=O)[C@H](CO)NC(=O)[C@H](Cc1c[nH]c2ccccc12)NC(=O)[C@@H](NC(=O)[C@H](CO)NC(=O)[C@H](CCCC)NC(=O)CNC(=O)[C@H](CCC(=O)O)NC(=O)C(C)(C)NC(=O)C(C)(C)NC(=O)[C@@H](NC(=O)[C@H](CCC(N)=O)NC(=O)[C@H](C)NC(=O)[C@H](CCCNC(=N)N)NC(=O)[C@@H](NC(=O)[C@H](CCCCN)NC(=O)[C@H](CCC(=O)O)NC(=O)[C@H](CCCNC(=N)N)NC(=O)CNC(=O)[C@H](CCC(=O)O)NC(=O)[C@H](CC(C)C)NC(C)=O)C(C)C)[C@@H](C)CC)[C@@H](C)O)C(N)=O)C(=O)O)C(=O)O)C(=O)O` [compound 98] (Ac-LEGREKVRAQI[Aib][Aib]EG[Nle]STWS[Aib]RKKK([AEEA-AEEA-γGlu-γGlu-γGlu-AEEA-Stearoyl])-NH2), for which the Emax was 99%.
